In US7517857B2, “Immune-modulating peptide” (POSCO, priority 2002, dated 2009):
Where a SMILES comes first, the peptide text is derived from it. [ ]: non-standard residue; d: D form.

How the values were obtained:
human neutrophils = experiment: Superoxide generation in human neutrophils (cytochrome c reduction); assay type: cell-based; conditions: for O^2− (nmol/10^6 cells), superoxide generation: cytochrome c reduction
Protocol: Peripheral blood leukocyte concentrates were donated by the Ulsan Red Cross Blood Center (Ulsan, Korea). Human neutrophils were isolated according to the standard procedures of dextran sedimentation, hypotonic lysis of erythrocytes, and a lymphocyte separation medium gradient as described above (9). The isolated human neutrophils were then used promptly.
The activity of the peptides, WKYMVm, peptides of SEQ ID NOs: 1 to 24, and wkymvm on superoxide generation in human neutrophils was measured. Superoxide anion generation was quantified by measuring reduction of cytochrome c using a microtiter 96-well plate ELISA reader (Bio-Tekinstruments, EL312e, Winooski, Vt.) as described (14). The human neutrophils (1×10^6 cells/100 μl of RPMI 1640 medium per well of a 96-well plate) were preincubated with 50 μM cytochrome c at 37° C. for 1 min and then incubated with the indicated concentrations of peptides. The superoxide generation was measured as a change in light absorption at 550 nm over 5 minutes at 1 min intervals. From at least four independent experiments, peptides with active amino acids at each position were chosen.

FPRL1 [1] = molecular target: T1, FPRL1 (Homo sapiens, UniProt P25090); experiment: [Ca2+]i increase in FPRL1-expressing RBL-2H3 cells (fura-2); assay type: cell-based
T1 construct: expressed in transfected cells; host or cells: RBL-2H3 (rat basophilic leukemia) cells, G418-selected
T1 sequence (P25090 1-351): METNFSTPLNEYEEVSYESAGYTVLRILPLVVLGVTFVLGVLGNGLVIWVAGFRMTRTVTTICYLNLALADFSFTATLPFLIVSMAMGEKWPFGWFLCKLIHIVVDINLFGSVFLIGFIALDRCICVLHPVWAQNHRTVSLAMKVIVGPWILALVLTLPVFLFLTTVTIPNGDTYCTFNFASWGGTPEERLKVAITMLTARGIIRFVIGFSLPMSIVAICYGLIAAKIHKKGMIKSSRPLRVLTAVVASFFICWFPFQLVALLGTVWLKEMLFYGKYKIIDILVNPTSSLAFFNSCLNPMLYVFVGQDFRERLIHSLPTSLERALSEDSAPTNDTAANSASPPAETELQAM
Protocol: […] The level of [Ca^2+]i was determined fluorometrically by Grynkiewicz's method using fura-2/AM (15). Briefly, prepared cells were incubated with 3 μM fura-2/AM at 37° C. for 50 min in a fresh serum-free RPMI 1640 medium under continuous stirring. 2×10^6 cells were aliquoted for each assay in Ca^2+-free Locke's solution (154 mM NaCl, 5.6 mM KCl, 1.2 mM MgCl2, 5 mM HEPES, pH 7.3, 10 mM glucose, and 0.2 mM EGTA). Fluorescence changes at the dual excitation wavelengths of 340 nm and 380 nm and the emission wavelength of 500 nm were measured, and the calibrated fluorescence ratio was translated into [Ca^2+]i. The peak level of the increased [Ca^2+]i was monitored.
[…] The level of [Ca^2+]i was determined by the same procedures as above. The peak level of the increased [Ca^2+]i was monitored.

CT26, colon carcinoma = experiment: Tumor growth in CT26-injected Balb/c mice; assay type: in vivo
Protocol: (§1) CT26, EL4 were maintained at 37° C. in a humidified 5% CO2 atmosphere in RPMA1640 medium supplemented with 20% (vol/vol) heat-inactivated fetal bovine serum. For animal experiments, the cells were passaged two to five times after re-growth from frozen stocks. Log phase CT26 cells were detached from tissue culture flasks with 0.25% trypsin and 0.03% EDTA. CT26 and EL4 were washed and resuspended in PBS immediately before injection.
In order to assess the antitumor effect of immuno-modulating peptide, Trp-Arg-Tyr-Met-Val-D-Met-CONH2, (WRYMVm; (SEQ ID NO: 4)), CT26, colon carcinoma was tested in Balb/c mice model. Tumor mass was measured in size every two days after 6 days from tumor cell inoculation.
To find the effective tumor-suppressing dose of WRYMVm, 0.1 μg/mouse, 0.25 μg/mouse, and 1 μg/mouse of WRYMVm were administered to CT26/Balb/c model. […] A similar phenomenon is easily found in chemotactic migration of leukocytes. In view of the fact that FPRL1, which is a target receptor for WRYMVm, is related to the chemotactic migration event, it is concluded that WRYMVm-induced antitumor effect might be derived from leukocyte infiltration event. Therefore, it is quite necessary to reveal the direct relationship between the WRYMVm-induced antitumor effect and the leukocyte infiltration event.

EL4, lymphoma cells = experiment: Tumor growth in EL4-injected C57/BL6 mice; assay type: in vivo; conditions: EL4 2×10^5 cells/mouse s.c.
Protocol: as §1
To confirm the antitumor effect of WRYMVm, another tumor model, EL4, lymphoma cells was tested. In order to form the tumor mass of EL4, EL4 (2×10^5 cells/mouse) were injected s.c to C57/BL6 mice. […] Overall, it appears obvious that WRYMVm has a tumor growth-suppressing effect in mice model.

FPR [2] = molecular target: T2, FPR (Homo sapiens, UniProt P21462); experiment: ERK phosphorylation in FPR-expressing RBL-2H3 cells (immunoblot); assay type: cell-based; conditions: pretreatment prior to 1 μM WKYMVm, PTX 100 ng/ml, LY294002 50 μM, GFX 5 μM, BAPTA/AM 10 μM, PD98059 50 μM
T2 construct: expressed in transfected cells; host or cells: RBL-2H3 (rat basophilic leukemia) cells, G418-selected
T2 sequence (P21462 1-350): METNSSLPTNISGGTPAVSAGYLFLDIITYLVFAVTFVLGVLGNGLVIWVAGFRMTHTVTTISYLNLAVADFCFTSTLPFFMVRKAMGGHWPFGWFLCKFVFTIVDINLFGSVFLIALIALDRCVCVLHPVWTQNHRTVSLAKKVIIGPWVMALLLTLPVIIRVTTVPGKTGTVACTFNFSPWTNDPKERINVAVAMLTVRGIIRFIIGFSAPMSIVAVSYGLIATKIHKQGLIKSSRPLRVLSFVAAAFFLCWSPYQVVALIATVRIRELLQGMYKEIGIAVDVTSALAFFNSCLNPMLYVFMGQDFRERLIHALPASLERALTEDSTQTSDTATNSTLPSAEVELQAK
Protocol: (§2) Cultured RBL-2H3 cells were aliquoted into 2×10^6 cells and stimulated with the indicated concentrations of WKYMVm and the peptides of the present invention for the indicated lengths of time. FPR- or FPRL1-expressing RBL-2H3 cells were stimulated with 1 μM WKYMVm for various periods of time (FIG. 3A). Two cells were preincubated with a vehicle or 100 ng/ml of PTX (24 hr), 50 μM of LY294002 (15 min), 5 μM of GFX (15 min), 10 μM BAPTA/AM (60 min), or 50 μM PD98059 (60 min) prior to 1 μM of WKYMVm treatment (FIG. 3B). FPR- or FPRL1-expressing RBL2H3 cells were stimulated with 10 μM of the peptides of the present invention for 2 min or 5 min, respectively (FIG. 3C).
(§3) After stimulation, the cells were washed with serum-free RPMI and lysed in a lysis buffer (20 mM Hepes, pH 7.2, 10% glycerol, 150 mM NaCl, 1% Triton X-100, 50 mM NaF, 1 mM Na3VO4, 10 μg/ml leupeptin, 10 μg/ml aprotinin, and 1 mM phenylmethylsulfonyl fluoride). The detergent-insoluble materials were pelleted by centrifugation (12,000×g, 15 min, at 4° C.), and the soluble supernatant fraction was removed and stored at −80° C. or used immediately. Protein concentrations in the lysates were determined using the Bradford protein assay reagent.
(§4) Each sample ([…] of protein) was subjected to 10% SDS-PAGE and phosphorylated ERK was determined by an immunoblot analysis with an anti-phospho-ERK antibody. Protein samples were prepared for electrophoresis by addition of a concentrated sample buffer. The portions in the samples were then separated by an 10% SDS-polyacrylamide gel using the buffer system described by Laemmli (17).
(§5) Following the electrophoresis, a western blot analysis with an anti-ERK2 antibody was performed to confirm that the same amounts of samples were used for the experiments. The proteins were blotted onto nitrocellulose membranes. The nitrocellulose membranes were then blocked by incubation with TBS (Tris-buffered saline, 0.05% Tween-20) containing 5% non-fat dry milk. Subsequently, the membranes were incubated with anti-phospho-ERK antibody, anti-phospho-Akt antibody or anti-Akt antibody washed with TBS. For a PKC translocation assay, an antibody for PKC isozyme-specific was incubated. Antigen-antibody complexes were visualized after incubating the membrane with a 1:5000 diluted goat anti-rabbit IgG or goat anti-mouse IgG antibody coupled to horseradish peroxidase and using the enhanced chemiluminescence detection system.

FPRL1 [3] = molecular target: T1, FPRL1; experiment: ERK phosphorylation in FPRL1-expressing RBL-2H3 cells (immunoblot); assay type: cell-based; conditions: pretreatment prior to 1 μM WKYMVm, PTX 100 ng/ml, LY294002 50 μM, GFX 5 μM, BAPTA/AM 10 μM, PD98059 50 μM
Protocol: as §2, §3, §4, §5

FPR [4] = molecular target: T2, FPR; experiment: Exocytosis: β-hexosaminidase secretion in FPR-expressing RBL-2H3 cells; assay type: cell-based; conditions: FPR cells; 10 μM BAPTA/AM prior to 1 μM WKYMVm
Protocol: (§6) Granule secretion is one of the most important function of mast cells (20). The effect of WKYMVm on granule secretion was checked by measuring β-hexosaminidase secretion as described above (18). Briefly, RBL-2H3 cells (2×10^5/well) expressing FPR or FPRL1 were cultured overnight in a 24-well tissue culture plate. The cells were washed twice with Tyrode's buffer (137 mM NaCl, 12 mM NaHCO3, 5.6 mM glucose, 2.7 mM KCl, 1 mM CaCl2, 0.5 mM MgCl2, 0.4 mM NaH2PO4, 0.1g/100 ml BSA, and 25 mM HEPES, pH 7.4) and stimulated with each peptide. Various concentrations of WKYMVm were treated in FPR- or FPRL1-expressing RBL-2H3 cells (FIG. 5A). 1 μM of WKYMVm was used to stimulate two cell lines in the absence or presence of 10 μM BAPTA/AM (FIG. 5B). The reaction was terminated 20 min after stimulation by placing the plate on ice. Secretion of β-hexosaminidase into the medium was determined by incubating 50 μl of supernatant or cell lysate with 25 μl of 5 mM p-nitrophenyl-N-acetyl-β-D-glucosamide in 0.1 M sodium citrate buffer (pH 3.8) at 37° C. for 2 hr. At the end of the incubation, 50 μl of 0.4 M Na2CO3 were added. Absorbance was monitored at 405 nm. Data are means ±S.E. of a single representative of three experiments performed in triplicate. Values (means ±S.E.) were expressed as a percent of total β-hexosaminidase present in the cells.
From the new finding that cytosolic calcium release was induced by WKYMVm and many of the substituted peptides of WKYMVm but not by some of them (WKGMVm (SEQ ID NO: 1), WKRMVm (SEQ ID NO: 11), D-Met^6 substituted peptides), the effect of the peptides on granule secretion in RBL cells was checked. 10 μM of each peptide was treated in FPR- (FIG. 6A) or FPRL1-expressing RBL-2H3 cells (FIG. 6B). The peptide-induced secretion of β-hexosaminidase was determined as above. Data are means ±S.E. of a single representative of three experiments performed in triplicate.

FPRL1 [5] = molecular target: T1, FPRL1; experiment: Exocytosis: β-hexosaminidase secretion in FPRL1-expressing RBL-2H3 cells; assay type: cell-based; conditions: FPRL1 cells; 10 μM BAPTA/AM prior to 1 μM WKYMVm
Protocol: as §6
10 μM of each peptide was treated in FPR- (FIG. 6A) or FPRL1-expressing RBL-2H3 cells (FIG. 6B). The peptide-induced secretion of β-hexosaminidase was determined as above. Data are means ±S.E. of a single representative of three experiments performed in triplicate.

CSCC[C@H](NC(=O)[C@H](Cc1ccc(O)cc1)NC(=O)[C@H](CCCNC(=N)N)NC(=O)[C@@H](N)Cc1c[nH]c2ccccc12)C(=O)N[C@H](C(=O)N[C@H](CCSC)C(N)=O)C(C)C [WRYMVm-NH2, Trp-Arg-Tyr-Met-Val-D-Met-NH2] (H-WRYMV[dM]-NH2; N-terminus assumed)
superoxide generating activity (human neutrophils; 100 nM of peptides): stimulated superoxide generation
O^2− (nmol/10^6 cells), superoxide generation (human neutrophils; peptide 100 nM): 47.1 ± 11.23 nmol/10^6 cells
O^2− (nmol/10^6 cells), superoxide generation (human neutrophils; peptide 10 μM): 38.2 ± 6.54 nmol/10^6 cells
[Ca^2+]i increasing activity (FPRL1 [1]): higher affinity to FPRL1
EC50 (FPRL1 [1]; fura-2 loaded, read-out: EC50 (nM), intracellular calcium increase): 0.12 ± 0.01 nM
tumor suppression (CT26, colon carcinoma; 0.1 μg/mouse, compared with 0.25 and 1 μg/mouse): highest effectiveness in the tumor suppression
tumor suppression (CT26, colon carcinoma; 1 μg/mouse): the tumor suppressing effect was lowered
tumor growth in CT26-injected mice (figure legend) (CT26, colon carcinoma; FIGS. 9A and 9B): attenuates tumor growth
tumor mass suppression (EL4, lymphoma cells): able to suppress tumor mass of EL4
tumor growth suppression / antitumor activity (tumor; vincristine i.p. 2 μg/mouse 8 hours prior to peptide injection): ability to suppress tumor growth

CC(=O)OCOC(=O)CN(CC(=O)OCOC(C)=O)c1ccccc1OCCOc1ccccc1N(CC(=O)OCOC(C)=O)CC(=O)OCOC(C)=O [BAPTA/AM]
effect of inhibitor pretreatment on WKYMVm-induced ERKs activation (FPR [2]): could not effect WKYMVm-induced ERK activation
effect of inhibitor pretreatment on WKYMVm-induced ERKs activation (FPRL1 [3]): could not effect WKYMVm-induced ERK activation
effect on WKYMVm-induced granule secretion (FPR [4]): almost completely inhibited WKYMVm-induced granule secretion
effect on WKYMVm-induced granule secretion (FPRL1 [5]): almost completely inhibited WKYMVm-induced granule secretion

5′-TCGTCGTTTTGTCGTTTTGTCGTT-3′ [CpG ODN, reference compound]
effect on tumor growth (CT26, colon carcinoma; 100 μg/mouse i.p.): didn't show any effect on tumor growth
survival (tumor; survival rate, FIG. 12B): failed to prevent death
